Positions count from the first letter of the chain named. Like-named read-outs stand apart in the source and are kept apart here. One block for each compound: values may come before it.
Experiments:
MTHFD2 [1] = molecular target: T1, MTHFD2 (Homo sapiens, UniProt P13995); assay: Enzyme kinetics of recombinant MTHFD2 in the modified 384 well assay; type: biochemical; conditions: recombinant MTHFD2, 384 well plate format; read-out: Km, Measured
T1 construct: 12 amino acids were removed from the unstructured C-terminus of the protein, and a 6-histidine tag added to facilitate purification; 6-histidine tag (C); made in house; host or cells: E. coli One Shot BL21 Star (DE3), pET-30a(+)
T1 sequence (P13995 with tags, fused parts or gaps): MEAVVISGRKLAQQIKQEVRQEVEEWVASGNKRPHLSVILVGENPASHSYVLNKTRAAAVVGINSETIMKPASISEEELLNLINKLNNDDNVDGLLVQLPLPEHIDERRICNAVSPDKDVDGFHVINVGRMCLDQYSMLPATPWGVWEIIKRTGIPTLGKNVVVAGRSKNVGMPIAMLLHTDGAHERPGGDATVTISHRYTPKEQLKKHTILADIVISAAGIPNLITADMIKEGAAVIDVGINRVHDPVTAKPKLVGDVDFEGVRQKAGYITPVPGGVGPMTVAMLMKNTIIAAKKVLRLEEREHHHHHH
Experimental: (§1) The NAD-dependent methylenetetrahydrofolate dehydrogenase/cyclohydrolase activity assay employed in this microtiter well based screen is based on previously published enzymatic assays, with modifications as listed below. The assay was initially reported by Scrimgeour and Huennekens, Biochem. Biophys. Res. Commun. 1960, 2:230-233 and subsequently by Mejia and MacKenzie, The Journal of biological chemistry. 1985; 260:14616-14620). The assay was performed as described with slight modifications (reported assay concentrations in the Mejia et al. assay are provided in brackets below). The modified assay utilized 50 ng of recombinant MTHFD2 protein produced as described in Example 11 per well in 384 well format. In addition, the present assay utilized 30 […], at pH 7.5 (7.3), with 150 uM formaldehyde (2.5 mM), 150 uM tetrahydrofolate (250 uM) and 6 mM MgCl (5 mM). No 2-mercaptoethanol or reducing agents were used in the present assay, which is crucial for detection of cysteine modifying compounds as potential enzyme inhibitors. The assay employed for high-throughput screening for chemical inhibitors used the final endpoint measure of formation of 5,10-methenyltetrahydrofolate by spectrophotometric absorbance at 340 nm.

MTHFD2 [2] = molecular target: T1, MTHFD2; conditions: published values (Yang and MacKenzie 1993); cited from earlier work
NCI-60 cancer cell lines = assay: Association between glycine consumption and compound sensitivity (GI50) across the 60 cell lines; type: cell-based, human; conditions: NCI public data, FIG. 3
Source text: Compound sensitivity data for glutathione biosynthesis and de novo purine biosynthesis inhibitors was obtained from the NCI data repository (October 2009 release). Compound sensitivity was quantified using the GI50 measure (Shoemaker, Nat Rev Cancer. 2006; 6:813-823), defined as the compound concentration inhibiting cell growth by 50%. For those compounds in which multiple experiments with different concentration ranges were available, the experiment with the least degree of saturation was used.
Given the observation that glycine consumption is correlated to rapid cancer cell proliferation (see Examples 1-5, above), the present inventors sought to determine whether glycine consumption predicts sensitivity to particular chemotherapeutic agents. The association between glycine update and sensitivity to 3851 annotated small molecules (data provided to the public by NCI) was examined bioinformatically across the 60 cell lines.

[3] = molecular target: T2, recombinant MTHFD2 protein (human, wild type) (Homo sapiens, UniProt P13995); assay: NAD-dependent methylenetetrahydrofolate dehydrogenase/cyclohydrolase activity assay, 384 well, no reducing agents; type: biochemical; conditions: for inhibition of MTHFD2 enzyme in high throughput screen: screen of about 5,100 small molecules, biological duplicate, no reducing agents
T2 construct: 12 amino acids were removed from the unstructured C-terminus of the protein, and a 6-histidine tag added to facilitate purification; 6-histidine tag (C); made in house; host or cells: E. coli One Shot BL21 Star (DE3), pET-30a(+)
T2 sequence (P13995 with tags, fused parts or gaps): T1 sequence (P13995 with tags, fused parts or gaps)
Experimental: as §1
The assay described in Example 12 was used to screen a library of about 5,100 small molecule agents in the Prestwick chemical library, Known Bioactives Library and Library of Pharmacologically Active Compounds, in biological duplicate. […] Several of the high scoring inhibitors are known cysteine modifiers that could in principle inhibit enzyme activity by modification of cysteine residues.
Three mutant MTHFD2 constructs were generated with Agilent QuikChange Lightening, with cysteine to serine mutations at C145, C166 or both C145/C166. These mutants were retested with three of the compounds identified in the secondary screen (6-hydroxy-DL-DOPA, Celastrol, and Ebselen). […] Given the identification of these cysteine residues, additional structure/medicinal chemistry may be employed to specifically design small molecules that take advantage of these cysteine residues and inhibit MTHFD2 with greater selectivity.

MTHFD2 C145S mutant = molecular target: T3, MTHFD2 C145S mutant (Homo sapiens, UniProt P13995, C145S); assay: Same activity assay on MTHFD2 C145 cysteine to serine mutant; type: biochemical
T3 construct: 12 amino acids were removed from the unstructured C-terminus of the protein, and a 6-histidine tag added to facilitate purification; 6-histidine tag (C); made in house
T3 sequence (P13995 with tags, fused parts or gaps C145S): T1 sequence (P13995 with tags, fused parts or gaps) with C111S
Experimental: as §1, with “nm. […]” for “nm.”

MTHFD2 C166S mutant = molecular target: T4, MTHFD2 C166S mutant (Homo sapiens, UniProt P13995, C166S); assay: Same activity assay on MTHFD2 C166 cysteine to serine mutant; type: biochemical
T4 construct: 12 amino acids were removed from the unstructured C-terminus of the protein, and a 6-histidine tag added to facilitate purification; 6-histidine tag (C); made in house
T4 sequence (P13995 with tags, fused parts or gaps C166S): T1 sequence (P13995 with tags, fused parts or gaps) with C132S
Experimental: as §1, with “nm. […]” for “nm.”

[4] = molecular target: T5, MTHFD2 C145S/C166S mutant (Homo sapiens, UniProt P13995, C145S/C166S); assay: Same activity assay on MTHFD2 C145/C166 double mutant; type: biochemical
T5 construct: 12 amino acids were removed from the unstructured C-terminus of the protein, and a 6-histidine tag added to facilitate purification; 6-histidine tag (C); made in house
T5 sequence (P13995 with tags, fused parts or gaps C145S/C166S): T1 sequence (P13995 with tags, fused parts or gaps) with C111S, C132S
Experimental: as §1, with “nm. […]” for “nm.”

LOX IMVI cells = assay: Rescue of SHMT2-silenced LOX IMVI cells grown in the absence of glycine; type: cell-based, human; conditions: supplement 140 μM
Experimental: (§2) For lentiviral infection, 100,000 cells were seeded in a 6-well dish in 2 mL medium containing 8 μg/ml Polybrene and 100 μl viral supernatant added. Plates were centrifuged at 800×g for 30 minutes at 37° C., and the medium replaced. Twenty-four hours later, cells were selected for infection by the addition of 2 μg/ml puromycin. […] Cells were passaged for >10 cell divisions to ensure stable expression of the shRNA construct. For assessment of SHMT2 knockdown, mRNA was isolated from cells using RNeasy kit (Qiagen), and qRT-PCR was performed for SHMT2 and HPRT1 using the Taqman assay (Applied Biosystems assay ID Hs00193658_m1* and Hs01003267_m1*, respectively), according to manufacturer's instructions. For experiments using A498 and LOX IMVI, cells were infected with either sh1-4 or shCtrl lentivirus and stable expressing cells selected as above. For experiments utilizing NCI-H226, HS-578T, TK10, EKVX, OVCAR-8, U251, A549, HT29, NCI-460 and HCT-116, cells were infected with either sh4 or shCtrl lentivirus and stable expressing cells selected as above. […] For all experiments, cells were counted and cell counts expressed as fold change over time. […] Cells were counted at regular time intervals as described above. All experiments were performed using at least 10 independent cell cultures.

[5] = test system: 10 additional primary cancer cell lines from the NCI-60 panel; conditions: FIG. 1G
Experimental: as §2

Km (MTHFD2 [1]): 4.1 µM
Structure (SMILES): Nc1nc2c(c(=O)[nH]1)N1CN(c3ccc(C(=O)N[C@@H](CCC(=O)O)C(=O)O)cc3)CC1CN2 (some centres unmarked) [5,10 CH2—THF]
Km (MTHFD2 [2]): 6.7 µM

Structure (SMILES): O=c1[nH]cc(F)c(=O)[nH]1 [5-fluorouracil]
sensitivity of glycine consuming cells to the agent (correlation of glycine consumption with sensitivity) (NCI-60 cancer cell lines): not more sensitive

Structure (SMILES): NC(Cc1cc(O)c(O)cc1O)C(=O)O (stereo not drawn) [6-hydroxy-DL DOPA]
inhibition of wild type MTHFD2 with addition of the reducing agent DTT ([3]; plus DTT): not antagonized
inhibition of wild type MTHFD2 ([3]; retest with mutants, FIGS. 9A-C): inhibited
inhibition of MTHFD2 enzyme in high throughput screen [3]: inhibit the enzyme
inhibition of C145 mutant MTHFD2 (MTHFD2 C145S mutant): inhibited
inhibition of C166 mutant MTHFD2 (MTHFD2 C166S mutant): inhibited
inhibition of C145/C166 double mutant MTHFD2 [4]: inhibited

inhibition of MTHFD2 enzyme in high throughput screen [3]: inhibit the enzyme
Structure (SMILES): O=C1Nc2ccc(I)cc2/C1=C/c1cc(Br)c(O)c(Br)c1 [GW5074]

Km (MTHFD2 [1]): 51.5 µM
Structure (SMILES): NC(=O)c1ccc[n+]([C@@H]2O[C@H](COP(=O)([O-])OP(=O)(O)OC[C@H]3O[C@@H](n4cnc5c(N)ncnc54)[C@H](O)[C@@H]3O)[C@@H](O)[C@H]2O)c1 [NAD+]
Km (MTHFD2 [2]): 56.4 µM

inhibition of MTHFD2 enzyme in high throughput screen [3]: inhibit the enzyme
Structure (SMILES): Clc1ccc(C(c2ccc(Cl)cc2)n2cc[n+](CC(OCc3ccc(Cl)cc3Cl)c3ccc(Cl)cc3Cl)c2)cc1 (centres unmarked) [calmidazolium chloride]

Structure (SMILES): O=CO [formate]
rescue of proliferation of SHMT2-silenced LOX IMVI cells (LOX IMVI cells): failed to rescue

Structure (SMILES): NCC(=O)O [glycine]
rescue of proliferation of SHMT2-silenced LOX IMVI cells (LOX IMVI cells): rescued
rescue by addition of extracellular glycine in rapidly proliferating SHMT2-silenced cancer cells [5]: rescued

Structure (SMILES): NC(=O)CI [iodoacetamide]
inhibition of MTHFD2 enzyme in high throughput screen [3]: inhibit the enzyme

Structure (SMILES): CN(Cc1cnc2nc(N)nc(N)c2n1)c1ccc(C(=O)N[C@@H](CCC(=O)O)C(=O)O)cc1 [methotrexate, Glutamic acid, N-[p-[[(2,4-diamino-6-pteridinyl)methyl]methylamino]benzoyl]-, L-(+)-(8CI)]
sensitivity of glycine consuming cells to the agent (correlation of glycine consumption with sensitivity) (NCI-60 cancer cell lines): uniquely sensitive

Structure (SMILES): O=C1C=CC(=O)C=C1 [para-benzoquinone]
inhibition of MTHFD2 enzyme in high throughput screen [3]: inhibit the enzyme

Structure (SMILES): C=CC1=C(C)c2cc3[nH]c(cc4nc(cc5[nH]c(cc1n2)c(C)c5CCC(=O)O)C(CCC(=O)O)=C4C)c(C)c3C=C [protoporphyrin IX disodium]
inhibition of MTHFD2 enzyme in high throughput screen [3]: inhibit the enzyme
